Among the test systems are A498 renal; T-47D breast; DU-145 prostate; LOX IMVI melanoma; MDA-N; OVCAR-4 ovarian; HOP-62 NSCLC; UACC-62 melanoma; A549 NSCLC; NCI-H226 lung; HCT-15 colon; SNB-19 CNS; SK-MEL-5 melanoma; ACHN renal; HCT-116 colon; NCI/ADR-RES ovarian; COLO 205 colon; BT-549 breast; HOP-92 NSCLC; K-562 leukemia.
Assay in all cases: inhibition of tumour cell growth, NCI panel, 48 h

Experimental findings from PubChem BioAssay (NCI) are described below.

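Assay format: 96-well plates, 48-hour exposure. TGI denotes the concentration required for complete inhibition of growth.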 Where only a bound is given, the exact number is not on record here.

`O=C(Nc1nccs1)c1c(O)nc2sccn2c1=O`: the TGI with A498 renal, in the experiment with T-47D breast, with DU-145 prostate, in the experiment on LOX IMVI melanoma, in the experiment with MDA-N and in the experiment with OVCAR-4 ovarian was more than 10 µM throughout. In addition, the TGI with HOP-62 NSCLC, in the experiment on UACC-62 melanoma, with A549 NSCLC, in the experiment with NCI-H226 lung, in the experiment with HCT-15 colon and in the experiment with SNB-19 CNS was more than 10 µM throughout. The TGI with SK-MEL-5 melanoma, in the experiment with ACHN renal, in the experiment with HCT-116 colon, in the experiment on NCI/ADR-RES ovarian and in the experiment on COLO 205 colon was more than 10 µM in each case.
As to `c1c[nH]c(-c2ccc(-c3ccc[nH]3)c3nsnc23)c1`, the TGI in the experiment on A498 renal was more than 100 µM; in the experiment with BT-549 breast, more than 100 µM; in the experiment on DU-145 prostate, 98.3 µM; in the experiment on LOX IMVI melanoma, more than 100 µM; in the experiment on MDA-N, more than 100 µM; with OVCAR-4 ovarian, more than 16.5 µM. The TGI is more than 80.1 µM in the experiment on HOP-62 NSCLC; more than 100 µM in the experiment with UACC-62 melanoma; more than 70 µM in the experiment on A549 NSCLC; more than 100 µM in the experiment with NCI-H226 lung; more than 76.8 µM in the experiment with HCT-15 colon; more than 100 µM in the experiment with SNB-19 CNS. For the same compound, the TGI in the experiment with SK-MEL-5 melanoma was more than 100 µM; in the experiment with ACHN renal, more than 86.8 µM; in the experiment with HCT-116 colon, more than 59.8 µM; in the experiment on NCI/ADR-RES ovarian, more than 93.2 µM; with HOP-92 NSCLC it was more than 100 µM; with K-562 leukemia it was more than 49.1 µM. The compound also yielded a TGI in the experiment with COLO 205 colon of more than 65.9 µM.
Regarding `OCCc1ccsc1-c1sc(-c2cc(CCO)c(-c3sccc3CCO)s2)cc1CCO`, the TGI in the experiment with A498 renal came out at 40.3 µM; in the experiment on BT-549 breast, 20.3 µM; with DU-145 prostate, 32.9 µM; in the experiment with LOX IMVI melanoma, 72.3 µM; in the experiment on MDA-N it was 63.5 µM; in the experiment on OVCAR-4 ovarian it was 34 µM. For the same compound, the TGI was 27.6 µM in the experiment on HOP-62 NSCLC; 25.4 µM with UACC-62 melanoma; more than 100 µM in the experiment with A549 NSCLC; 40.5 µM with HCT-15 colon; 36.5 µM with SNB-19 CNS; 52.9 µM with SK-MEL-5 melanoma. Further, the TGI in the experiment on ACHN renal was 35.9 µM; with HCT-116 colon, 43.8 µM; in the experiment with NCI/ADR-RES ovarian, 38.5 µM; in the experiment on HOP-92 NSCLC it was 32.6 µM; in the experiment on K-562 leukemia it was more than 100 µM; with COLO 205 colon it was 31 µM.
For the compound `CCCCCCOc1ccc(C(=O)NOC)cc1`, the TGI in the experiment with A498 renal, in the experiment with BT-549 breast, in the experiment on DU-145 prostate, in the experiment on LOX IMVI melanoma, with MDA-N and in the experiment with OVCAR-4 ovarian was more than 100 µM each time. Also, the TGI with HOP-62 NSCLC, in the experiment on UACC-62 melanoma, in the experiment on A549 NSCLC, with NCI-H226 lung, with HCT-15 colon and in the experiment on SNB-19 CNS was more than 100 µM throughout. Further, the TGI in the experiment with SK-MEL-5 melanoma, in the experiment with ACHN renal, with HCT-116 colon, in the experiment on NCI/ADR-RES ovarian, with HOP-92 NSCLC and in the experiment on K-562 leukemia was more than 100 µM each time. In the experiment on COLO 205 colon, the TGI is more than 100 µM.
Turning to `Oc1ccc([I+]c2ccccc2)cc1O`, the TGI with A498 renal, with BT-549 breast, in the experiment with DU-145 prostate, with LOX IMVI melanoma, in the experiment with MDA-N and in the experiment on OVCAR-4 ovarian was more than 100 µM each time. For the same compound, the TGI with HOP-62 NSCLC is more than 100 µM; in the experiment on A549 NSCLC, 65.5 µM; in the experiment on NCI-H226 lung, more than 100 µM; with HCT-15 colon, more than 100 µM; in the experiment on SNB-19 CNS, more than 100 µM; in the experiment on SK-MEL-5 melanoma, more than 100 µM. Moreover, the TGI in the experiment with ACHN renal is more than 100 µM; in the experiment with HCT-116 colon, more than 100 µM; in the experiment on NCI/ADR-RES ovarian, more than 100 µM; in the experiment with HOP-92 NSCLC, 28.9 µM; with K-562 leukemia, 54.3 µM; in the experiment with COLO 205 colon, more than 100 µM.
`CCCC(=O)OC1CC(n2cc(F)c(=O)[nH]c2=O)OC1COP(=O)(OCC(Cl)(Cl)Cl)OCC(Cl)(Cl)Cl` (stereo not given): the TGI was more than 31.6 µM in the experiment on T-47D breast; more than 67.6 µM in the experiment with DU-145 prostate; more than 69.6 µM in the experiment on LOX IMVI melanoma; more than 31.6 µM with MDA-N; more than 100 µM in the experiment with OVCAR-4 ovarian; more than 100 µM in the experiment with HOP-62 NSCLC. In addition, the TGI in the experiment with UACC-62 melanoma was more than 100 µM; with A549 NSCLC it was more than 94.6 µM; in the experiment with NCI-H226 lung it was more than 100 µM; in the experiment on HCT-15 colon, more than 100 µM; with SNB-19 CNS it was more than 100 µM; with SK-MEL-5 melanoma it was more than 100 µM. For the same compound, the TGI was more than 96 µM in the experiment with ACHN renal; more than 51.1 µM in the experiment with HCT-116 colon; more than 31.6 µM with NCI/ADR-RES ovarian; more than 100 µM in the experiment with HOP-92 NSCLC; 59 µM with COLO 205 colon.
With `Cc1cc(N(CCOS(C)(=O)=O)CCOS(C)(=O)=O)ccc1C=O`, the TGI in the experiment on A498 renal is 7.29 µM; in the experiment on BT-549 breast it was more than 100 µM; in the experiment on LOX IMVI melanoma it was 58.7 µM; in the experiment with MDA-N it was 26.4 µM; in the experiment with OVCAR-4 ovarian, 45.3 µM; in the experiment on UACC-62 melanoma, 15.7 µM. Further, the TGI in the experiment on A549 NSCLC is 45.7 µM; with HCT-15 colon, 71.8 µM; with SNB-19 CNS it was more than 100 µM; in the experiment on SK-MEL-5 melanoma, more than 100 µM; with HCT-116 colon it was more than 100 µM; in the experiment on NCI/ADR-RES ovarian, 60.5 µM. The TGI in the experiment on HOP-92 NSCLC was 39 µM; in the experiment on K-562 leukemia, more than 100 µM; in the experiment on COLO 205 colon, 4.39 µM.
With `CS(=O)(=O)OCC(CCl)(CCl)CCl`, the TGI with A498 renal, in the experiment on T-47D breast, with DU-145 prostate, in the experiment with LOX IMVI melanoma, in the experiment with MDA-N and in the experiment on OVCAR-4 ovarian was more than 100 µM in each case. The TGI in the experiment on A549 NSCLC, with NCI-H226 lung, in the experiment with HCT-15 colon, with SNB-19 CNS, in the experiment on SK-MEL-5 melanoma and in the experiment on ACHN renal was more than 100 µM throughout. Moreover, the TGI in the experiment with HCT-116 colon, in the experiment with NCI/ADR-RES ovarian, in the experiment on HOP-92 NSCLC, in the experiment on K-562 leukemia and with COLO 205 colon was more than 100 µM throughout.
